Measured values published in patent publication US20260158009A1 (GENZYME CORPORATION, priority 2023, published 2026).

Assays:
[1] = molecular target: T1, hRIPK1 (aa 1-375) fusion protein (Homo sapiens, UniProt Q13546); assay: ADP-Glo kinase assay: catalytic activity of RIPK1 (autophosphorylation, conversion of ATP to ADP); format: biochemical
T1 construct: hRIPK1 (aa 1-375) fusion protein
T1 sequence (Q13546 1-375): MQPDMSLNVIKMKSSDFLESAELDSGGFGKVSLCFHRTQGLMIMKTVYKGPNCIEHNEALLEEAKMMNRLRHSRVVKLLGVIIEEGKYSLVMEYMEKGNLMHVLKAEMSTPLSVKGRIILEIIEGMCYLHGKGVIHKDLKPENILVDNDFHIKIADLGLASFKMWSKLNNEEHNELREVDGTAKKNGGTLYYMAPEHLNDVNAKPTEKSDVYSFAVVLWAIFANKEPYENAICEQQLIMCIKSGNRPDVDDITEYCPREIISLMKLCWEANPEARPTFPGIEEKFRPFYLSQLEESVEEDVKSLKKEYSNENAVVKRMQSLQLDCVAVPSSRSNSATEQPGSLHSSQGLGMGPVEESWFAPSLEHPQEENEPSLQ
Summary of the method: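 The readout was ADP-Glo luminescence after a 240 min rt autophosphorylation reaction with 50 μM ATP, following 30 min preincubation of 3.6 μg/ml hRIPK1 (aa 1-375) fusion with compound at 33300-1.69 nM final in 1% DMSO. Values came from Levenberg-Marquardt nonlinear fits.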

[2] = tested on: U937 cells; assay: Cellular assay in U937 cells: activity of RIPK1 inhibitors on TNFα/zVAD.fmk-induced cell death (necroptosis), CellTiter 96 AQueous (MTS) readout; format: cell-based; conditions: Homo sapiens, U-937
Summary of the method: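 Necroptosis was measured by viable-cell MTS reduction (4 h, absorbance 490 nm) after overnight (18–24 h) 37° C culture. Cell suspensions of U937 cells carried TNFα (100 ng/ml) plus zVAD.fmk (50 μM) before compound was added. A 10-point curve (10 μM–0.26 nM or 1 μM–0.07 nM) was run in duplicate, normalised to the control lacking TNFα/zVAD.fmk.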

Row | IC50 [1] | Structure (SMILES) | IC50 [2]
1 | 75 nM | N#Cc1ccc2cn(C[C@H]3CC[C@H](C(=O)N4OCC[C@H]4c4cnccn4)CC3)nc2c1 [compound 196, trans-2-[[4-[(3S)-3-pyrazin-2-ylisoxazolidine-2-carbonyl]cyclohexyl]methyl]indazole-6-carbonitrile] | 379 nM
2 | 37 nM | N#Cc1cc(F)cc([C@@H]2CCON2C(=O)[C@H]2CC[C@H](Cn3ccc4nc(C#N)ccc43)CC2)c1 [compound 99, trans-1-[[4-[(3S)-3-(3-cyano-5-fluoro-phenyl)isoxazolidine-2-carbonyl]cyclohexyl]methyl]pyrrolo[3,2-b]pyridine-5-carbonitrile] | 33 nM
3 | 13 nM | N#Cc1cc(C[C@H]2CC[C@H](C(=O)N3OCC[C@H]3c3cnccn3)CC2)ccc1F [compound 243, trans-2-fluoro-5-[[4-[(3S)-3-pyrazin-2-ylisoxazolidine-2-carbonyl]cyclohexyl]methyl]benzonitrile] | 3 nM
4 | 27 nM | Cc1cc(C)n(C[C@H]2CC[C@H](C(=O)N3OCC[C@H]3c3cc(F)cc(C#N)c3)CC2)n1 [compound 119, trans-3-((S)-2-(4-((3,5-dimethyl-1H-pyrazol-1-yl)methyl)cyclohexane-1-carbonyl)isoxazolidin-3-yl)-5-fluorobenzonitrile] | 54 nM
5 | 39 nM | N#Cc1cncc([C@@H]2CCON2C(=O)[C@H]2CC[C@H](Cn3cnc4cc(F)ccc43)CC2)c1 [compound 107, trans-5-((S)-2-(4-((5-fluoro-1H-benzo[d]imidazol-1-yl)methyl)cyclohexane-1-carbonyl)isoxazolidin-3-yl)nicotinonitrile] | 108 nM
6 | 104 nM | Cc1nnc2c(F)cc(C[C@H]3CC[C@H](C(=O)N4OCC[C@H]4c4cnccn4)CC3)cn12 [compound 359, trans-[4-[(8-fluoro-3-methyl-[1,2,4]triazolo[4,3-a]pyridin-6-yl)methyl]cyclohexyl]-[(3S)-3-pyrazin-2-yl-1,2-oxazolidin-2-yl]methanone] | 451 nM
7 | 21 nM | N#Cc1cc(C[C@H]2CC[C@H](C(=O)N3OCC[C@H]3c3ccc(F)cc3)CC2)ccc1F [compound 242, trans-2-fluoro-5-[[4-[(3S)-3-(4-fluorophenyl)isoxazolidine-2-carbonyl]cyclohexyl]methyl]benzonitrile] | 16 nM
8 | 64 nM | Cc1cc(C[C@H]2CC[C@H](C(=O)N3OCC[C@H]3c3cnc(C)c(F)c3)CC2)cnn1 [compound 398, trans-[(3S)-3-(5-fluoro-6-methylpyridin-3-yl)-1,2-oxazolidin-2-yl]-[4-[(6-methylpyridazin-4-yl)methyl]cyclohexyl]methanone] | 182 nM
9 | 6 nM | CNC(=O)c1cc(F)cc(C[C@H]2CC[C@H](C(=O)N3OCC[C@H]3c3cncc(F)c3)CC2)c1 [compound 160, trans-3-fluoro-5-[[4-[(3S)-3-(5-fluoro-3-pyridyl)isoxazolidine-2-carbonyl]cyclohexyl]methyl]-N-methyl-benzamide] | 11 nM
10 | 38 nM | Cc1ncc(F)cc1C[C@H]1CC[C@H](C(=O)N2OCC[C@H]2c2cncc(F)c2)CC1 [compound 178, trans-[4-[(5-fluoro-2-methyl-3-pyridyl)methyl]cyclohexyl]-[(3S)-3-(5-fluoro-3-pyridyl)isoxazolidin-2-yl]methanone] | 6 nM
11 | 46 nM | Cc1ccc([C@@H]2CCON2C(=O)[C@H]2CC[C@H](Cc3cc(C)c4ncnn4c3)CC2)cn1 [compound 347, trans-[(3S)-3-(6-methylpyridin-3-yl)-1,2-oxazolidin-2-yl]-[4-[(8-methyl-[1,2,4]triazolo[1,5-a]pyridin-6-yl)methyl]cyclohexyl]methanone] | 59 nM
12 | 31 nM | Cc1nc2c(Cl)cc(C[C@H]3CC[C@H](C(=O)N4OCC[C@H]4c4cnc(C)c(F)c4)CC3)cn2n1 [compound 381, [4-[(8-chloro-2-methyl-[1,2,4]triazolo[1,5-a]pyridin-6-yl)methyl]cyclohexyl]-[(3S)-3-(5-fluoro-6-methylpyridin-3-yl)-1,2-oxazolidin-2-yl]methanone] | 8 nM
13 | 138 nM | Cc1ccc(C[C@H]2CC[C@H](C(=O)N3OCC[C@H]3c3cnccn3)CC2)nn1 [compound 357, trans-[4-[(6-methylpyridazin-3-yl)methyl]cyclohexyl]-[(3S)-3-pyrazin-2-ylisoxazolidin-2-yl]methanone] | 531 nM
14 | 61 nM | Cc1ccc([C@@H]2CCON2C(=O)[C@H]2CC[C@H](Cc3ccnn3C)CC2)cn1 [compound 397, trans-[4-[(2-methylpyrazol-3-yl)methyl]cyclohexyl]-[(3S)-3-(6-methylpyridin-3-yl)-1,2-oxazolidin-2-yl]methanone] | 163 nM
15 | 18 nM | Cn1nccc1-c1cc(F)cc(C[C@H]2CC[C@H](C(=O)N3OCC[C@H]3c3cnccn3)CC2)c1 [compound 211, trans-[4-[[3-fluoro-5-(2-methylpyrazol-3-yl)phenyl]methyl]cyclohexyl]-[(3S)-3-pyrazin-2-ylisoxazolidin-2-yl]methanone] | 20 nM

More lines, now with the values behind:

Row | Structure (SMILES) | IC50 [1] | IC50 [2]
16 | N#Cc1cc(F)c2ncn(C[C@H]3CC[C@H](C(=O)N4OCC[C@H]4c4cc(F)cc(F)c4)CC3)c2c1 [compound 37, trans-1-((4-((S)-3-(3,5-difluorophenyl)isoxazolidine-2-carbonyl)cyclohexyl)methyl)-4-fluoro-1H-benzo[d]imidazole-6-carbonitrile] | 17 nM | 5 nM
17 | N#Cc1cc(F)cc([C@@H]2CCON2C(=O)[C@H]2CC[C@H](Cn3cnc4cc(C(N)=O)c(F)cc43)CC2)c1 [compound 74, trans-1-((4-((S)-3-(3-cyano-5-fluorophenyl)isoxazolidine-2-carbonyl)cyclohexyl)methyl)-6-fluoro-1H-benzo[d]imidazole-5-carboxamide] | 28 nM | 106 nM
18 | O=C([C@H]1CC[C@H](Cn2ccc3cc(F)ccc32)CC1)N1OCC[C@H]1c1cc(F)cc(F)c1 [compound 96, trans-((S)-3-(3,5-difluorophenyl)isoxazolidin-2-yl)(4-((5-fluoro-1H-indol-1-yl)methyl)cyclohexyl)methanone] | 16 nM | 2 nM
19 | N#Cc1cc2c(cc1F)ncn2C[C@H]1CC[C@H](C(=O)N2OCC[C@H]2c2cc(F)cc(F)c2)CC1 [compound 12, trans-1-((4-((S)-3-(3,5-difluorophenyl)isoxazolidine-2-carbonyl)cyclohexyl)methyl)-5-fluoro-1H-benzo[d]imidazole-6-carbonitrile] | 33 nM | 3 nM
20 | Cc1ncn(C[C@H]2CC[C@H](C(=O)N3OCC[C@H]3c3cncc(F)c3)CC2)c1C#N [compound 4, trans-1-((4-((S)-3-(5-fluoropyridin-3-yl)isoxazolidine-2-carbonyl)cyclohexyl)methyl)-4-methyl-1H-imidazole-5-carbonitrile] | 116 nM | 721 nM
21 | N#Cc1cc(F)cc([C@@H]2CCON2C(=O)[C@H]2CC[C@H](Cn3ccc4ncc(F)cc43)CC2)c1 [compound 93, trans-3-fluoro-5-((S)-2-(4-((6-fluoro-1H-pyrrolo[3,2-b]pyridin-1-yl)methyl)cyclohexane-1-carbonyl)isoxazolidin-3-yl)benzonitrile] | 20 nM | 2 nM
22 | N#Cc1ccc2nn(C[C@H]3CC[C@H](C(=O)N4OCC[C@H]4c4cc(F)cc(F)c4)CC3)cc2c1 [compound 58, trans-2-((4-((S)-3-(3,5-difluorophenyl)isoxazolidine-2-carbonyl)cyclohexyl)methyl)-2H-indazole-5-carbonitrile] | 26 nM | 32 nM
23 | Cc1cc([C@@H]2CCON2C(=O)[C@H]2CC[C@H](Cn3cc4c(F)cc(C#N)cc4n3)CC2)co1 [compound 42, trans-4-fluoro-2-((4-((S)-3-(5-methylfuran-3-yl)isoxazolidine-2-carbonyl)cyclohexyl)methyl)-2H-indazole-6-carbonitrile] | 39 nM | 119 nM
24 | Cc1nn(C[C@H]2CC[C@H](C(=O)N3OCC[C@H]3c3cc(F)cc(C#N)c3)CC2)c2cc(F)c(C#N)cc12 [compound 69, trans-1-((4-((S)-3-(3-cyano-5-fluorophenyl)isoxazolidine-2-carbonyl)cyclohexyl)methyl)-6-fluoro-3-methyl-1H-indazole-5-carbonitrile] | 22 nM | 5 nM
25 | N#Cc1cncc([C@@H]2CCON2C(=O)[C@H]2CC[C@H](Cn3cnc4cc(F)c(C#N)cc43)CC2)c1 [compound 64, trans-1-((4-((S)-3-(5-cyanopyridin-3-yl)isoxazolidine-2-carbonyl)cyclohexyl)methyl)-5-fluoro-1H-benzo[d]imidazole-6-carbonitrile] | 20 nM | 47 nM
26 | N#Cc1cc(F)cc([C@@H]2CCON2C(=O)[C@H]2CC[C@H](Cc3cc(F)cc(CO)c3)CC2)c1 [Compound 256, trans-3-fluoro-5-[(3S)-2-[4-[[3-fluoro-5-(hydroxymethyl)phenyl]methyl]cyclohexanecarbonyl]isoxazolidin-3-yl]benzonitrile] | 15 nM | 1 nM
